Results on 17 compounds are retold here after patent US8835462B2, “Macrocyclic picolinamides as fungicides” (Dow AgroSciences LLC, priority 2012, dated 2014).

Holding throughout (format): in vivo
Test [1] concerns Mycosphaerella graminicola; Anamorph: Septoria tritici. The experiment in a line: Leaf blotch of wheat (SEPTTR) fungicidal activity on wheat seedlings. Conditions: Zymoseptoria tritici. Here is the method:
Evaluation of Fungicidal Activity: Leaf Blotch of Wheat (Mycosphaerella Graminicola; Anamorph: Septoria tritici; Bayer Code […]) Technical grades of materials were dissolved in acetone, which were then mixed with nine volumes of water containing 110 ppm Triton X-100. The fungicide solutions were applied onto wheat seedlings using an automated booth sprayer to run-off. All sprayed plants were allowed to air dry prior to further handling. Wheat plants (variety Yuma) were grown from seed in a greenhouse in 50% mineral soil/50% soil-less Metro mix until the first leaf was fully emerged, with 7-10 seedlings per pot. These plants were inoculated with an aqueous spore suspension of Septoria tritici either prior to or after fungicide treatments. After inoculation the plants were kept in 100% relative humidity (one day in a dark dew chamber followed by two to three days in a lighted dew chamber at 20° C.) to permit spores to germinate and infect the leaf. The plants were then transferred to a greenhouse set at 20° C. for disease to develop. When disease symptoms were fully expressed on the 1st leaves of untreated plants, infection levels were assessed on a scale of 0 to 100 percent disease severity. Percent disease control was calculated using the ratio of disease severity on treated plants relative to untreated plants.

In test [2] the test system is Puccinia triticina. Description: Wheat brown rust (PUCCRT) fungicidal activity on wheat seedlings. On the procedure: Technical grades of materials were dissolved in acetone, which were then mixed with nine volumes of water containing 110 ppm Triton X-100. The fungicide solutions were applied onto wheat seedlings using an automated booth sprayer to run-off. All sprayed plants were allowed to air dry prior to further handling. Wheat plants (variety Yuma) were grown from seed in a greenhouse in 50% mineral soil/50% soil-less Metro mix until the first leaf was fully emerged, with 7-10 seedlings per pot. These plants were inoculated with an aqueous spore suspension of Septoria tritici either prior to or after fungicide treatments. After inoculation the plants were kept in 100% relative humidity (one day in a dark dew chamber followed by two to three days in a lighted dew chamber at 20° C.) to permit spores to germinate and infect the leaf. The plants were then transferred to a greenhouse set at 20° C. for disease to develop. When disease symptoms were fully expressed on the 1st leaves of untreated plants, infection levels were assessed on a scale of 0 to 100 percent disease severity. Percent disease control was calculated using the ratio of disease severity on treated plants relative to untreated plants. Evaluation of Fungicidal Activity: Wheat Brown Rust (Puccinia triticina; Synonym: Puccinia recondita f. sp. tritici; Bayer Code PUCCRT) Wheat plants (variety Yuma) were grown from seed in a greenhouse in 50% mineral soil/50% soil-less Metro mix until the first leaf was fully emerged, with 7-10 seedlings per pot. These plants were inoculated with an aqueous spore suspension of Puccinia triticina either prior to or after fungicide treatments. After inoculation the plants were kept in a dark dew room at 22° C. with 100% relative humidity overnight to permit spores to germinate and infect the leaf. The plants were then transferred to a greenhouse set at 24° C. for disease to develop. Fungicide formulation, application and disease assessment followed the procedures as described in the Example A.

The test system of test [3] is Puccinia triticina. Description: Fungicide mobility (dropline mobility test), wheat brown rust (PUCCRT). The following applies: 1 ug/leaf, disease-free zone as percent of distance from marked line to leaf tip; for Dropline Mobility Test PUCCRT 1 DPM: 1 Day Protectant Mobility; for Dropline Mobility Test PUCCRT 3 DCM: 3 Day Curative Mobility. Here is the method: Evaluation of Fungicide Mobility: Wheat Brown Rust (Puccinia Triticina; Synonym: Puccinia recondita f. sp. Tritici; Bayer Code PUCCRT):
“Yuma” wheat seedlings were used in the test. One mg of compound was dissolved in 9 μl of EC blank (emulsifiable concentrate) and 500 μl of acetone. Acetone was then evaporated overnight by leaving the vial open in a fume hood. Two milliliters of water containing 110 ppm Triton X-100 was added to each vial to prepare application solutions. A […] drop of formulated material was applied to a marked line on the adaxial surface 5 cm from the leaf tip of the primary leaves. The primary leaves were kept in a horizontal position. Each treatment had 6 replicates. Plants were inoculated with PUCCRT 1-day after (1DPM) or 3-day prior to (3DCM) compound applications. When rust was fully expressed on primary leaves on control plants, the zone of treated leaves that was disease-free in the acropetal direction was measured with a ruler and converted to percent of the distance from marked line to leaf tip.

Setting [4] is: 24 h, 1 Day Protectant, read-out: Disease Control SEPTTR 1 DP.
Setting [5] is: 72 h, 3 Day Curative, read-out: Disease Control SEPTTR 3 DC.
[6] abbreviates: 24 h, 1 Day Protectant, read-out: Disease Control PUCCRT 1 DP.
[7] abbreviates: 72 h, 3 Day Curative, read-out: Disease Control PUCCRT 3 DC.

Each structure is given as a SMILES string. Like-named read-outs stand apart in the source and are kept apart here.

Take `COC(=O)CCO[C@@H]1[C@@H](Cc2ccccc2)COC[C@H](NC(=O)c2nccc(OC)c2O)C(=O)O[C@H]1C` [Compound 11]: the pest or weed control at 100 ppm (in test [1] (setting [4]); in test [1] (setting [5]); in the test with Puccinia triticina [2] (setting [6]); with Puccinia triticina [2] (setting [7])) was 0 to 80% throughout.
With `COC(=O)CCO[C@@H]1[C@@H](Cc2ccccc2)COC[C@H](NC(=O)c2nccc(OC)c2OCOC(C)=O)C(=O)O[C@H]1C` [Compound 12], the pest or weed control at 100 ppm in test [1] (setting [4]) was in the range of 0 to 80%; in test [1] (setting [5]) it was 0 to 80%; with Puccinia triticina [2] (setting [6]), 80 to 100%; in the test with Puccinia triticina [2] (setting [7]), 0 to 80%.
Consider `COc1ccnc(C(=O)N[C@H]2COC[C@H](Cc3ccccc3)[C@@H](OCCC(=O)N(C)C)[C@H](C)OC2=O)c1O` [Compound 13], for which the pest or weed control at 100 ppm (in test [1] (setting [4]); in test [1] (setting [5]); in the test on Puccinia triticina [2] (setting [7])) was 0 to 80% throughout.
Consider `COCCCO[C@@H]1[C@@H](Cc2ccccc2)COC[C@H](NC(=O)c2nccc(OC)c2O)C(=O)O[C@H]1C` [Compound 14], for which the pest or weed control at 100 ppm in test [1] (setting [4]) was in the range of 80 to 100%; in test [1] (setting [5]), 0 to 80%; with Puccinia triticina [2] (setting [6]) it was 80 to 100%; in the test on Puccinia triticina [2] (setting [7]), 80 to 100%.
On to `COc1ccnc(C(=O)N[C@H]2COC[C@H](Cc3ccccc3)[C@@H](OCCCC(F)(F)F)[C@H](C)OC2=O)c1O` [Compound 18], for which the pest or weed control at 100 ppm (in test [1] (setting [4]); in test [1] (setting [5]); in the test with Puccinia triticina [2] (setting [6]); in the test on Puccinia triticina [2] (setting [7])) was 80 to 100% each time. In the test with Puccinia triticina [3], the “Dropline Mobility Test PUCCRT 1 DPM” value is given as “B (More than 0-Less than 80)”. Moreover, the “Dropline Mobility Test PUCCRT 3 DCM” value in the test on Puccinia triticina [3] is listed as “B (More than 0-Less than 80)”.
On to `COc1ccnc(C(=O)N[C@H]2COC[C@H](Cc3ccccc3)[C@@H](OC/C=C/C(F)(F)F)[C@H](C)OC2=O)c1O` [Compound 20], for which the pest or weed control at 100 ppm (in test [1] (setting [4]); in test [1] (setting [5]); with Puccinia triticina [2] (setting [6]); in the test on Puccinia triticina [2] (setting [7])) was 0 to 80% each time. In addition, the “Dropline Mobility Test PUCCRT 1 DPM” value in the test with Puccinia triticina [3] was “B (More than 0-Less than 80)”.
Regarding `CCCC(C)O[C@@H]1[C@@H](Cc2ccccc2)COC[C@H](NC(=O)c2nccc(OC)c2OCOC(C)=O)C(=O)O[C@H]1C` (stereo partly shown) [Compound 24], the pest or weed control at 100 ppm (in test [1] (setting [4]); in test [1] (setting [5]); with Puccinia triticina [2] (setting [6]); in the test with Puccinia triticina [2] (setting [7])) was 80 to 100% each time. Moreover, the “Dropline Mobility Test PUCCRT 1 DPM” value with Puccinia triticina [3] is listed as “B (More than 0-Less than 80)”. The “Dropline Mobility Test PUCCRT 3 DCM” value with Puccinia triticina [3] is “B (More than 0-Less than 80)”.
Take `COc1ccnc(C(=O)N[C@H]2COC[C@H](Cc3ccccc3)[C@@H](OC/C=C/C(F)(F)F)[C@H](C)OC2=O)c1OCOC(C)=O` [Compound 25]: the pest or weed control at 100 ppm (in test [1] (setting [4]); in test [1] (setting [5]); in the test on Puccinia triticina [2] (setting [6]); in the test on Puccinia triticina [2] (setting [7])) was 80 to 100% throughout. The “Dropline Mobility Test PUCCRT 1 DPM” value with Puccinia triticina [3] is “B (More than 0-Less than 80)”.
Turning to `COC(=O)/C=C/O[C@@H]1[C@@H](Cc2ccccc2)COC[C@H](NC(=O)c2nccc(OC)c2O)C(=O)O[C@H]1C` [Compound 27], the pest or weed control at 100 ppm in test [1] (setting [4]) lay in the range of 0 to 80%; in test [1] (setting [5]), 0 to 80%; with Puccinia triticina [2] (setting [6]), 80 to 100%; in the test with Puccinia triticina [2] (setting [7]) it was 0 to 80%. The “Dropline Mobility Test PUCCRT 1 DPM” value in the test on Puccinia triticina [3] is on record as “B (More than 0-Less than 80)”. For the same compound, the “Dropline Mobility Test PUCCRT 3 DCM” value with Puccinia triticina [3] is reported as “B (More than 0-Less than 80)”.
For `COc1ccnc(C(=O)N[C@H]2COC[C@H](Cc3ccccc3)[C@@H](OCCCc3ccccc3)[C@H](C)OC2=O)c1O` [Compound 28], the pest or weed control at 100 ppm in test [1] (setting [4]) lay within 0 to 80%; in test [1] (setting [5]) it was 0 to 80%; with Puccinia triticina [2] (setting [6]), 80 to 100%; with Puccinia triticina [2] (setting [7]) it was 80 to 100%. Moreover, the “Dropline Mobility Test PUCCRT 1 DPM” value in the test on Puccinia triticina [3] is given as “B (More than 0-Less than 80)”.
For `COc1ccnc(C(=O)N[C@H]2COC[C@H](Cc3ccccc3)[C@@H](OC3CCCCC3)[C@H](C)OC2=O)c1O` [Compound 29], the pest or weed control at 100 ppm fell in the range of 0 to 80% in test [1] (setting [4]), 80 to 100% in test [1] (setting [5]), 80 to 100% with Puccinia triticina [2] (setting [6]) and 80 to 100% in the test with Puccinia triticina [2] (setting [7]). Further, in the test with Puccinia triticina [3], the “Dropline Mobility Test PUCCRT 1 DPM” value is listed as “B (More than 0-Less than 80)”. For the same compound, the “Dropline Mobility Test PUCCRT 3 DCM” value with Puccinia triticina [3] is “B (More than 0-Less than 80)”.
As to `COc1ccnc(C(=O)N[C@H]2COC[C@H](Cc3ccccc3)[C@@H](OC(=O)c3ccccc3)[C@H](C)OC2=O)c1O` [Compound 30], the pest or weed control at 100 ppm in test [1] (setting [4]) is 0 to 80%; in test [1] (setting [5]), 0 to 80%; with Puccinia triticina [2] (setting [6]) it was 80 to 100%; with Puccinia triticina [2] (setting [7]), 0 to 80%. For the same compound, in the test with Puccinia triticina [3], the “Dropline Mobility Test PUCCRT 1 DPM” value is on record as “B (More than 0-Less than 80)”.
As to `COc1ccnc(C(=O)N[C@H]2COC[C@H](Cc3ccccc3)[C@@H](OC(=O)C3CC3)[C@H](C)OC2=O)c1O` [Compound 31], the pest or weed control at 100 ppm (in test [1] (setting [4]); in test [1] (setting [5]); in the test on Puccinia triticina [2] (setting [6]); with Puccinia triticina [2] (setting [7])) was 80 to 100% throughout. In addition, the “Dropline Mobility Test PUCCRT 1 DPM” value in the test on Puccinia triticina [3] is on record as “B (More than 0-Less than 80)”. Also, in the test with Puccinia triticina [3], the “Dropline Mobility Test PUCCRT 3 DCM” value is listed as “B (More than 0-Less than 80)”.
With `COc1ccnc(C(=O)N[C@H]2COC[C@H](Cc3ccccc3)[C@@H](Oc3ccccc3)[C@H](C)OC2=O)c1O` [Compound 33], the pest or weed control at 100 ppm (in test [1] (setting [4]); in test [1] (setting [5]); in the test on Puccinia triticina [2] (setting [6]); with Puccinia triticina [2] (setting [7])) was 80 to 100% throughout. Further, in the test with Puccinia triticina [3], the “Dropline Mobility Test PUCCRT 1 DPM” value is reported as “B (More than 0-Less than 80)”.
For the compound `COc1ccnc(C(=O)N[C@H]2COC[C@H](Cc3ccccc3)[C@@H](OC3CCCCC3)[C@H](C)OC2=O)c1OCOC(C)=O` [Compound 35], the pest or weed control at 100 ppm (in test [1] (setting [4]); in test [1] (setting [5]); in the test with Puccinia triticina [2] (setting [6]); in the test with Puccinia triticina [2] (setting [7])) was 80 to 100% each time. In the test with Puccinia triticina [3], the “Dropline Mobility Test PUCCRT 1 DPM” value is “B (More than 0-Less than 80)”.
Consider `COc1ccnc(C(=O)N[C@H]2COC[C@H](Cc3ccccc3)[C@@H](OCCC(C)C)[C@H](C)OC2=O)c1O` [Compound 41], for which the pest or weed control at 100 ppm lay within 0 to 80% in test [1] (setting [4]), 0 to 80% in test [1] (setting [5]), 80 to 100% with Puccinia triticina [2] (setting [6]) and 0 to 80% in the test with Puccinia triticina [2] (setting [7]). Moreover, the “Dropline Mobility Test PUCCRT 1 DPM” value in the test with Puccinia triticina [3] is recorded as “B (More than 0-Less than 80)”. In addition, the “Dropline Mobility Test PUCCRT 3 DCM” value with Puccinia triticina [3] was “B (More than 0-Less than 80)”.
Consider `COc1ccnc(C(=O)N[C@H]2COC[C@H](Cc3ccccc3)[C@@H](OC3CCCC3)[C@H](C)OC2=O)c1O` [Compound 105], for which the pest or weed control at 100 ppm (in test [1] (setting [4]); in test [1] (setting [5]); in the test with Puccinia triticina [2] (setting [6]); in the test on Puccinia triticina [2] (setting [7])) was 80 to 100% throughout.
